EP4660190A1, “PHARMACEUTICALLY ACCEPTABLE SALT OF COMPOUND AND PREPARATION METHOD THEREFOR” (Jiangsu Chia Tai Fenghai Pharmaceutical Co., Ltd., priority 2023, dated 2024)
Where “and” joins values, the source holds several entries; their conditions need not be identical. Identical values can stand only once. Like-named read-outs stand apart in the source and are kept apart here.

Columns and labels:
[1] = Distribution in plasma and brain tissues of rats; format: in vivo, Male SD rats; conditions: rat, 20mg/kg p.o.
Source text: The concentration of compound in the plasma and brain tissue samples was quantified by liquid chromatography-tandem mass spectrometry (LC-MS/MS).

[2] = test system: Middle cerebral artery occlusion (MCAO) models of SD rata; test: Rat MCAO model, 28-day dosing, grid walking test; format: in vivo, SD rats; conditions: Mean±SD
Method: Middle cerebral artery occlusion (MCAO) models of SD rata were constructed by using the suture occlusion method. The rats were administered with the test compound for 28 consecutive days. The pharmacodynamic evaluation on the test compound for cerebral stroke was obtained based on general observation and neurobehavioral assessment. […] The ECA was ligated. The ICA was temporarily occluded. Sutures were threaded at both the proximal end and the distal end of CCA. The distal end was securely ligated, and a loosely tied knot was placed at the proximal end. A small incision was made on the CCA between these two sutures. […] The threading was halted temporarily when reaching the artery clamp of ICA. The pre-ligation suture was further tightened. The artery clamp blocking the blood flow in the ICA was removed, allowing the suture occlusion to be advanced into the ICA until it entered the intracranial region. […] The insertion was stopped at the moment, and the time was recorded. The artery clamp on the CCA was removed and the incision was closed after no active bleeding was observed. The ischemic rats were placed at room temperature to keep their body temperature at 37°C, and anesthesia induction could be carried out 120min later. The suture was slowly and gradually withdrawn under anesthesia until the proximal end retracted into the ECA, thereby initiating reperfusion of the middle cerebral artery. Animals received the designated dosage immediately (within 10 min) after reperfusion. This dosing regimen continued once daily for a duration of 28 days, with the day of operation being defined as D1 (Day 0). […] After the completion of the 28-day dosing period, all surviving animals in the study were euthanized, and their brains were rapidly collected for pathological analysis. […] Table 8 Results of Grid Walking Test

[3] = test system: Middle cerebral artery occlusion (MCAO) models of SD rats; test: Rat MCAO model, 7 daily doses, TTC staining cerebral infarction; format: in vivo
Source text: Middle cerebral artery occlusion (MCAO) models of SD rats were constructed using the suture occlusion method to evaluate the neuroprotective effect of the compound on neurons of rats after cerebral ischemia-reperfusion. […] The ECA was ligated. The ICA was temporarily occluded. Sutures were threaded at both the proximal end and the distal end of CCA. The distal end was securely ligated, and a loosely tied knot was placed at the proximal end. A small incision was made on the CCA between these two sutures. […] The threading was halted temporarily when reaching the artery clamp of ICA. The pre-ligation suture was further tightened. The artery clamp blocking the blood flow in the ICA was removed, allowing the suture occlusion to be advanced into the ICA until it entered the intracranial region. […] The insertion was stopped at the moment, and the time was recorded. The artery clamp on the CCA was removed and the incision was closed after no active bleeding was observed. The ischemic rats were placed at room temperature to keep their body temperature at 37°C, and anesthesia induction could be carried out 120min later. The suture was slowly and gradually withdrawn when the rats were maintained under anesthesia, so that the proximal end of the suture returned to the ECA, thereby initiating reperfusion of the middle cerebral artery. […] A single dose was administered immediately after reperfusion (within 10 minutes), followed by one dose per day for a total of 7 consecutive doses (including the first dose). Except for the initial administration, all subsequent doses were given between 4:00 PM and 7:00 PM each day. […] Animals were euthanized 7 days after ischemia reperfusion, and the brains were rapidly taken, frozen, and dissected for TTC staining. The normal tissues were rose-red after staining, and the infarcted tissues were white. The infarct size (%) percentage, calculated as the weight of infarcted tissues to the weight of the whole brain, is used to evaluate the degree of cerebral ischemic injury in rats. […] Table 12 Cerebral infarct size and cerebral infarction inhibition rate of experimental animals

[4] = rat, value in literature, cited from earlier work
SOD1 G93A ALS mice = test: SOD1-G93A ALS mice, survival; format: in vivo; conditions: 40 mg/kg dose group
[5] = test system: MPTP-induced Parkinson's disease model mice; test: MPTP-induced mouse Parkinson's disease model, TH-positive fiber content in the striatum; format: in vivo, C57 mice; conditions: four weeks, mean ± SD
[6] = test system: MPTP-induced Parkinson's disease model mice; test: MPTP-induced mouse Parkinson's disease model, TH-positive cell counts in the substantia nigra pars compacta; format: in vivo, C57 mice; conditions: four weeks, mean ± SD
[7] = for Total impurities: Table 4
[8] = 60mg/kg oral, 7 daily doses, 7 days after reperfusion, Mean±SD
[9] = high dose 20 mg/kg daily, listed as Tromethamine salt from Example 10, 20 mg/kg
[10] = high dose 20 mg/kg daily, listed as tromethamine salt from Example 10, 20 mg/kg
[11] = low dose 5 mg/kg daily, listed as Tromethamine salt from Example 10, 5 mg/kg
[12] = low dose 5 mg/kg daily, listed as tromethamine salt from Example 10, 5 mg/kg

For `CCCCC1OC(=O)c2ccccc21` (stereo not shown) [Butylphthalide, butylphthalide, reference compound], the “Measured value in brain tissues Concentration” value ([1]; 0.5 h) was 28.5 ng/g, the “Measured value in plasma Concentration” value ([1]; 0.5 h) was 26.0 ng/mL and the “Measured value in brain tissues Concentration” value ([1]; 1 h) was 22.8 ng/g. The “Measured value in plasma Concentration” value ([1]; 1 h) was 19.1 ng/mL, the “Measured value in brain tissues Concentration” value ([1]; 4h) was 10.2 ng/g and the “Measured value in plasma Concentration” value ([1]; 4h) was 7.2 ng/mL. The “Measured value in plasma Concentration” value ([1]; 24 h) was 1.7 ng/mL, the “Misstep frequency (times)” value ([2]; 60mg/kg p.o. q.d., 1W after operation, listed as NBP) was 7.37±3.03 times and the “Misstep frequency (times)” value ([2]; 60mg/kg p.o. q.d., 2W after operation) was 8.10± 2.97 times. The “Misstep frequency (times)” value ([2]; 60mg/kg p.o. q.d., 3W after operation) was 6.27± 2.890 times, the “Misstep frequency (times)” value ([2]; 60mg/kg p.o. q.d., 4W after operation) was 2.10± 1.46 times and the “Cerebral infarction inhibition rate (%)” value [3, 8] was 28.624±14.597%. The “Infarct Size (%)” value [3, 8] was 14.241±2.912%, the “Infarct area weight” value [3, 8] was 0.175 ± 0.032 g and the AUC0-inf ([4]; i.v. 10 mg/kg) was 8620.0 ng·h/mL. The AUC0-t ([4]; i.v. 10 mg/kg) was 7230.0 ng·h/mL, the MRTinf ([4]; i.v. 10 mg/kg) was 2.4 h and the T1/2 ([4]; i.v. 10 mg/kg) was 2.2 h. For the same compound, the AUC0-inf ([4]; p.o. 60 mg/kg) was 8560.0 ng·h/mL, the AUC0-t ([4]; p.o. 60 mg/kg) was 7110.0 ng·h/mL and the Cmax ([4]; p.o. 60 mg/kg) was 2900.0 ng/mL. The MRTinf ([4]; p.o. 60 mg/kg) was 3.8 h, the T1/2 ([4]; p.o. 60 mg/kg) was 2.83 h and the Tmax ([4]; p.o. 60 mg/kg) was 0.7 h.

For `CCC/C(O)=C1/C(=O)Oc2ccccc21` [Compound (I)], the “Measured value in brain tissues Concentration” value ([1]; 0.5 h) was 8733.3 ng/g, the “Measured value in plasma Concentration” value ([1]; 0.5 h) was 241333.3 ng/mL and the “Measured value in brain tissues Concentration” value ([1]; 1 h) was 5726.7 ng/g. For the same compound, the “Measured value in plasma Concentration” value ([1]; 1 h) was 192333.3 ng/mL, the “Measured value in brain tissues Concentration” value ([1]; 4h) was 5030.0 ng/g and the “Measured value in plasma Concentration” value ([1]; 4h) was 182333.3 ng/mL. For the same compound, the “Measured value in brain tissues Concentration” value ([1]; 24 h) was 285.3 ng/g, the “Measured value in plasma Concentration” value ([1]; 24 h) was 23500.0 ng/mL and the “Misstep frequency (times)” value ([2]; high dose 20mg/kg p.o. q.d., 1W after operation, 20 mg/kg) was 4.23±1.44 times. The “Misstep frequency (times)” value ([2]; high dose 20mg/kg p.o. q.d., 1W after operation, listed as compound (I), 20 mg/kg) was 4.23±1.44 times, the “Misstep frequency (times)” value ([2]; high dose 20mg/kg p.o. q.d., 2W after operation) was 3.23± 2.56 times and the “Misstep frequency (times)” value ([2]; high dose 20mg/kg p.o. q.d., 3W after operation) was 2.50± 0.81 times. For the same compound, the “Misstep frequency (times)” value ([2]; high dose 20mg/kg p.o. q.d., 4W after operation) was 1.42± 1.11 times, the “Misstep frequency (times)” value ([2]; low dose 6mg/kg p.o. q.d., 1W after operation, 6 mg/kg) was 5.33± 2.33 times and the “Misstep frequency (times)” value ([2]; low dose 6mg/kg p.o. q.d., 1W after operation, listed as compound (I), 6 mg/kg) was 5.33±2.33 times. The “Misstep frequency (times)” value ([2]; low dose 6mg/kg p.o. q.d., 2W after operation) was 6.33± 3.53 times, the “Misstep frequency (times)” value ([2]; low dose 6mg/kg p.o. q.d., 3W after operation) was 4.38± 2.44 times and the “Misstep frequency (times)” value ([2]; low dose 6mg/kg p.o. q.d., 4W after operation) was 2.58± 1.55 times.

With “(Z)-3-(1-hydroxybutenyl)benzofuran-2-one tromethamine salt [Example 10]” the “Cerebral infarction inhibition rate (%)” value ([3]; rat, in vivo) was 26.236± 12.737% and 31.023± 11.150%, the “Infarct Size (%)” value ([3]; rat, in vivo) was 14.717±2.541 % and 13.762±2.225 % and the “Infarct area weight” value ([3]; rat, in vivo) was 0.183 ± 0.036 g and 0.176 ± 0.030 g. For the same compound, the extension of survival (SOD1 G93A ALS mice) was “approximately 15 days”, the “TH-Positive Fiber Content” value [5, 9] was 709627.56±100462.19^&# and the “TH-Positive Fiber Content” value [5, 10] was 709,627.56±100,462.19. The “TH-Positive Fiber Content” value [5, 11] was 526554.39±169680.75^&, the “TH-Positive Fiber Content” value [5, 12] was 526,554.39±169,680.75 and the “TH-Positive Cell counts” value [6, 9] was 42.42±4.36^&#. For the same compound, the “TH-Positive Cell counts” value [6, 10] was 42.42±4.36, the “TH-Positive Cell counts” value [6, 11] was 31.22±5.97^& and the “TH-Positive Cell counts” value [6, 12] was 31.22±5.97. It also gave a Total impurities ([7]; 0 h) of 0.08, a Total impurities ([7]; High Humidity 75%, 10 d) of 0.04 and a Total impurities ([7]; High Humidity 92.5%, 10 d) of 0.04. It also gave a Total impurities ([7]; High temperature 60°C, 10 d) of 0.03, a Total impurities ([7]; Light (packaged), 10 d) of 0.04 and a Total impurities ([7]; Light (unwrapped), 10 d) of 0.03. For the same compound, the chemical stability ([7]; high temperature (60°C), light (unwrapped, packaged), high humidity (92.5%, 75%)) was “good chemical stability”.
